Experimental data published in patent US7241803B2, “Compounds for inhibition of HIV infection by blocking HIV entry” (New York Blood Center, priority 2002, dated 2007).

How the values were obtained:
[1] = test system: HIV-1 AZT-R (clade B, X4); conditions: Laboratory-adapted AZT-R (clade B, X4)
Procedure: Assessment of anti-HIV-1 infectivity. The inhibitory activity of compounds on infection by laboratory-adapted HIV-1 strains was determined as previously described (18). In brief, 1×10^4 MT-2 cells were infected with HIV-1 at 100 TCID50 (50% tissue culture infective dose) in 200 μl of RPMI 1640 medium containing 10% FBS in the presence or absence of compounds at graded concentrations overnight. For the time-of-addition assay, compounds were added at various time post-infection. Then the culture supernatants were removed and fresh media were added. On the fourth day post-infection, 100 μl of culture supernatants were collected from each well, mixed with equal volumes of 5% Triton X-100 and assayed for p24 antigen, which was quantitated by ELISA (51). Briefly, the wells of polystyrene plates (Immulon 1B, Dynex Technology, Chantilly, Va.) were coated with HIV immunoglobulin (HIVIG), which was prepared from plasma of HIV-seropositive donors with high neutralizing titers against HIV-1IIIB as previously described (44) in 0.085 M carbonate-bicarbonate buffer (pH 9.6) at 4° C. overnight, followed by washes with PBS-T buffer (0.01M PBS containing 0.05% Tween-20) and blocking with PBS containing 1% dry fat-free milk (Bio-Rad Inc., Hercules, Calif.). Virus lysates were added to the wells and incubated at 37° C. for 1 h. […] Absorbance at 450 nm was recorded in an ELISA reader (Ultra 384, Tecan). […]

[2] = test system: 5.25M7 & PBMCs infected by 92UG029 (clade A, X4)
Procedure: (§1) Inhibition of fusion between PBMCs infected by primary HIV-1 strains (X4 and R5 viruses) with CEMx174 5.25 M7 cells, which express CD4 and both coreceptors, CXCR4 and CCR5, was determined by a luciferase assay. Briefly, 50 μl of compound at graded concentration in triplicate was incubated with equal volume of PHA-stimulated PBMCs (1×10^5/ml) infected by corresponding primary HIV-1 strains, respectively, for 7 days as described above. After incubation at 37° C. for 30 min, 100 μl of CEMx174 5.25 M7 cells (2×10^5) were added and incubated at 37° C. for three days. The cells were collected, washed, and lysed with the lysing reagent included in the luciferase kit (Promega, Corp., Madison, Wis.). Aliquots of cell lysates were transferred to 96-well flat-bottom luminometer plates (Costar, Corning Inc., Corning, N.Y.), followed by addition of luciferase substrate (Promega). The luciferase activity was measured in the Ultra 384 luminometer (Tecan).

[3] = test system: 5.25M7 & PBMCs infected by 93UG065 (clade D, X4R5)
Procedure: as §1

[4] = test system: 5.25M7 & PBMCs infected by CMU02 (clade E, R5)
Procedure: as §1

[5] = test system: 5.25M7 & PBMCs infected by 93IN101 (clade C, R5)
Procedure: as §1

[6] = test system: 5.25M7 & PBMCs infected by BCF02 (Group O, R5)
Procedure: as §1

[7] = test system: 5.25M7 & PBMCs infected by 93TH051 (clade E, X4R5)
Procedure: as §1

[8] = test system: 5.25M7 & PBMCs/SF162 (clade B, R5)
Procedure: as §1

[9] = test system: 5.25M7 & PBMCs infected by 92UG657 (clade B, R5)
Procedure: as §1

[10] = test system: 5.25M7 & PBMCs infected by 93BR020 (clade F, X4R5)
Procedure: as §1

[11] = test system: H9/HIV-1IIIB cells cocultured with MT-2 cells; assay: syncytium-formation assay for screening HIV-1 fusion inhibitors; type: cell-based; conditions: single dose 25 μg/ml
Text: Syncytium-formation assay for screening HIV-1 fusion inhibitors. […] HIV-1 induced syncytium formation was observed under an inverted microscope and scored as “−” (no syncytium was observed), “±” (about 50% syncytia were inhibited), and “+” (no syncytium formation was inhibited). The compounds scored with “−” and “±” were selected for further screening by ELISA for inhibitors against the gp41 six-helix bundle formation.

[12] = test system: HIV-1 93IN101 (clade C, R5); assay: infection of PBMCs by primary HIV-1 isolate, p24 production; type: cell-based; conditions: Primary 93IN101 (clade C, R5)
Text: (§2) Culture media were changed every 3 days.

[13] = test system: HIV-1 92US657 (clade B, R5); assay: as above; type: cell-based; conditions: Primary 92US657 (clade B, R5)
Text: as §2

[14] = test system: HIV-1 94UG103 (clade A, X4R5); assay: as above; type: cell-based; conditions: Primary 94UG103 (clade A, X4R5)
Text: as §2

[15] = test system: HIV-1 BCF02 (Group O, R5); assay: as above; type: cell-based
Text: as §2

[16] = biological target: N36/C34 mixture (Human immunodeficiency virus type 1 group M subtype B, UniProt P04578); conditions: 100 μg/ml
N36/C34 mixture, sequence (P04578 546-581): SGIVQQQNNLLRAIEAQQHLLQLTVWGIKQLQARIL
Procedure: Circular dichroism (CD) spectroscopy. A test compound at graded concentrations was incubated with N36 in phosphate buffer (pH 7.2) at 37° C. for 30 min before addition of C34 in the same buffer at equimolar concentration. After incubation at 37° C. for 30 min, the mixture was cooled down and CD spectra of the mixture were measured on the J-715 CD spectrometer equipped with a thermoelectric temperature controller (Jasco, Japan). The instrument was calibrated using a two point calibration method with (+)-10-camphorsulfonic acid. The wavelength dependence of molar ellipticity (θ) was monitored at 0° C. by 5 scans in 1 nm increments with a sampling time of 10 seconds as previously described (12, 51). The CD signal at 222 nm was measured as a function of temperature. Thermal melts were performed in 2° C. steps, with 2 min of equilibration at each temperature and an acquisition time of 0.5 min. The midpoint of the thermal unfolding transition (Tm) was estimated from the maximum of the first derivative of the CD signal at 222 nm (1).

[17] = test system: HIV-1 SF2 (clade B, X4); assay: infection by laboratory-adapted HIV-1 strain, p24 production; type: cell-based
Text: Assessment of anti-HIV-1 infectivity. […] Reactions were terminated by addition of 1N H2SO4.

## Cc1ccc(C)n1-c1ccc(C(=O)O)c(O)c1 [NB-2]
[1]
  IC50 (μg/ml) for inhibition of p24 production: 1.41 ± 0.03 µg/mL
[2]
  IC50 (μg/ml) for inhibition of cell-cell fusion: 2.50 ± 0.02 µg/mL
[3]
  IC50 (μg/ml) for inhibition of cell-cell fusion: 6.07 ± 0.07 µg/mL
[4]
  IC50 (μg/ml) for inhibition of cell-cell fusion: 8.14 ± 1.09 µg/mL
[5]
  IC50 (μg/ml) for inhibition of cell-cell fusion: 3.27 ± 0.18 µg/mL
[6]
  IC50 (μg/ml) for inhibition of cell-cell fusion: 0.93 ± 0.57 µg/mL
[7]
  IC50 (μg/ml) for inhibition of cell-cell fusion: 1.76 ± 0.07 µg/mL
[8]
  IC50 (μg/ml) for inhibition of cell-cell fusion: 4.86 ± 0.34 µg/mL
[9]
  IC50 (μg/ml) for inhibition of cell-cell fusion: 6.64 ± 1.13 µg/mL
[10]
  IC50 (μg/ml) for inhibition of cell-cell fusion: 1.66 ± 0.07 µg/mL
[11]
  inhibition of HIV-1 mediated syncytium formation: significantly inhibited
[12]
  IC50 (μg/ml) for inhibition of p24 production: 1.05 ± 0.23 µg/mL
[13]
  IC50 (μg/ml) for inhibition of p24 production: 10.41 ± 1.88 µg/mL
[14]
  IC50 (μg/ml) for inhibition of p24 production: 5.92 ± 0.06 µg/mL
[15]
  IC50 (μg/ml) for inhibition of p24 production: 0.21 ± 0.12 µg/mL
[16]
  α-helicity of the N36/C34 mixture: significantly disrupted
[17]
  IC50 (μg/ml) for inhibition of p24 production: 0.44 ± 0.03 µg/mL

## O=C(O)c1cc(-n2cccc2)ccc1Cl [NB-64]
[1]
  IC50 (μg/ml) for inhibition of p24 production: 6.25 ± 0.25 µg/mL
[2]
  IC50 (μg/ml) for inhibition of cell-cell fusion: 2.21 ± 0.56 µg/mL
[3]
  IC50 (μg/ml) for inhibition of cell-cell fusion: 20.77 ± 1.94 µg/mL
[4]
  IC50 (μg/ml) for inhibition of cell-cell fusion: 4.89 ± 1.08 µg/mL
[5]
  IC50 (μg/ml) for inhibition of cell-cell fusion: 18.26 ± 0.01 µg/mL
[6]
  IC50 (μg/ml) for inhibition of cell-cell fusion: 10.30 ± 5.90 µg/mL
[7]
  IC50 (μg/ml) for inhibition of cell-cell fusion: 12.72 ± 0.32 µg/mL
[8]
  IC50 (μg/ml) for inhibition of cell-cell fusion: 20.86 ± 0.20 µg/mL
[9]
  IC50 (μg/ml) for inhibition of cell-cell fusion: 39.00 ± 5.27 µg/mL
[10]
  IC50 (μg/ml) for inhibition of cell-cell fusion: 2.24 ± 0.31 µg/mL
[11]
  inhibition of HIV-1 mediated syncytium formation: significantly inhibited
[12]
  IC50 (μg/ml) for inhibition of p24 production: 4.38 ± 0.19 µg/mL
[13]
  IC50 (μg/ml) for inhibition of p24 production: 6.60 ± 1.80 µg/mL
[14]
  IC50 (μg/ml) for inhibition of p24 production: 7.94 ± 0.96 µg/mL
[15]
  IC50 (μg/ml) for inhibition of p24 production: 1.31 ± 0.90 µg/mL
[16]
  α-helicity of the N36/C34 mixture: significantly disrupted
[17]
  IC50 (μg/ml) for inhibition of p24 production: 1.34 ± 0.06 µg/mL
